In one data set the test system is CEM cells. Kind of data set: Intrinsic toxicity of the test compound in CEM cells without virus (MTT). The format is cell-based. To be noted: Table 14, medium without virus, 7 days. The text has this:
Methods 20, 309-321 (1988).

The next data set relates to HIV-1. Kind of data set: HIV inhibition assay of acutely infected CEM cells (tetrazolium based colorimetric, MTT). To be noted: Human immunodeficiency virus 1, CCRF-CEM, 168 h.
The target in another data set is T1, HIV protease (Human immunodeficiency virus type 1 group M subtype B, UniProt P04585).
T1 construct: HIV protease is diluted in the assay buffer to a final enzyme concentration of 12.3 nanomolar, based on a molecular weight of 10,780
Description: biochemical. In kind it is biochemical. The protocol: The enzyme method is described below. The substrate is 2-aminobenzoyl-Ile-Nle-Phe(p-NO2)-Gln-ArgNH2. The positive control is MVT-101 (Miller, M. et al, Science, 246, 1149 (1989)] The assay conditions are as follows:
The above described substrate is dissolved in DMSO, then diluted 10 fold in assay buffer. Final substrate concentration in the assay is 80 µM.
HIV protease is diluted in the assay buffer to a final enzyme concentration of 12.3 nanomolar, based on a molecular weight of 10,780.
The final concentration of DMSO is 14% and the final concentration of glycerol is 18%. The test compound is dissolved in DMSO and diluted in DMSO to 10x the test concentration; 10µl of the enzyme preparation is added, the materials mixed and then the mixture is incubated at ambient temperature for 15 minutes. The enzyme reaction is initiated by the addition of 40µl of substrate. The increase in fluorescence is monitored at 4 time points (0, 8, 16 and 24 minutes) at ambient temperature. Each assay is carried out in duplicate wells.

Setting [1] is: IC50, Table 13, 12.3 nanomolar enzyme, 80 µM substrate, pH 6.4, ambient temperature.
[2] abbreviates: IC50, Table 14, above-described enzyme assay.
The mark [3] stands for this setting: Table 13, 12.3 nanomolar enzyme, 80 µM substrate, pH 6.4, ambient temperature, read-out: IC50.

This note sets out measurements from patent publication EP0813867B1, “Retroviral protease inhibitors” (priority 1990, dated 1992).

Where two headings read alike, the source gives them in different places.

For orientation: EC50 means the concentration that produces a half-maximal response. By IC50 is commonly meant the concentration needed to halve the response being measured.

Description for HIV-1: The HIV inhibition assay method of acutely infected cells is an automated tetrazolium based colorimetric assay essentially that reported by Pauwles et al, J. Virol. […] Assays were performed in 96-well tissue culture plates. CEM cells, a CD4^+ cell line, were grown in RPMI-1640 medium (Gibco) supplemented with a 10% fetal calf serum and were then treated with polybrene (2µg/ml). An 80 µl volume of medium containing 1 x 10^4 cells was dispensed into each well of the tissue culture plate. To each well was added a 100µl volume of test compound dissolved in tissue culture medium (or medium without test compound as a control) to achieve the desired final concentration and the cells were incubated at 37°C for 1 hour. A frozen culture of HIV-1 was diluted in culture medium to a concentration of 5 x 10^4 TCID50 per ml (TCID50 = the dose of virus that infects 50% of cells in tissue culture), and a 20µL volume of the virus sample (containing 1000 TCID50 of virus) was added to wells containing test compound and to wells containing only medium (infected control cells). Several wells received culture medium without virus (uninfected control cells). Likewise, the intrinsic toxicity of the test compound was determined by adding medium without virus to several wells containing test compound.
In experiments 2 and 4 the final concentrations of test compounds were 1, 10, 100 and 500 µg/ml. Either azidothymidine (AZT) or dideoxyinosine (ddI) was included as a positive drug control. […] DMSO was added to all control wells at an appropriate concentration.
Following the addition of virus, cells were incubated at 37°C in a humidified, 5% CO2 atmosphere for 7 days. Test compounds could be added on days 0, 2 and 5 if desired. On day 7, post-infection, the cells in each well were resuspended and a 100µl sample of each cell suspension was removed for assay. A 20µL volume of a 5 mg/ml solution of 3-(4,5-dimethylthiazol-2-yl)-2,5-diphenyltetrazolium bromide (MTT) was added to each 100µL cell suspension, and the cells were incubated for 4 hours at 27°C in a 5% CO2 environment. […] To each sample was added 100µl of 10% sodium dodecylsulfate in 0.01 N HCl to lyse the cells, and samples were incubated overnight. The absorbance at 590 nm was determined for each sample using a Molecular Devices microplate reader. Absorbance values for each set of wells is compared to assess viral control infection, uninfected control cell response as well as test compound by cytotoxicity and antiviral efficacy.

Consider `CCCCNC(=O)N(CC(C)C)C[C@@H](O)[C@H](Cc1ccccc1)NC(=O)[C@H](CC(N)=O)NC(=O)OCc1ccccc1`, for which the TD50 with CEM cells lay within 170 to 180 µM. The compound further registered an EC50 in the data set on HIV-1 of 17000 nM.
The compound `CC(C)CCN(C[C@@H](O)[C@H](Cc1ccccc1)NC(=O)[C@H](CC(N)=O)NC(=O)OCc1ccccc1)C(=O)NC(C)(C)C` (relative stereo) [Compound 5a, Butanediamide, N^1-[3-[[[(1,1-dimethylethyl)amino]carbonyl](3,3-dimethylpropyl)amino]-2-hydroxy-1-(phenylmethyl)propyl]-2-[(N-benzyloxycarbonyl)amio], [1S-[1R*(R*),2S*]]-] showed an IC50 against HIV protease (Table 13, 12.3 nanomolar enzyme, 80 µM substrate, pH 6.4, ambient temperature) of 18 nM.
With `CC(C)CN(CC(O)C(Cc1ccccc1)NC(=O)C(CC(N)=O)NC(=O)c1ccc2ccccc2n1)C(=O)NC(C)(C)C` (stereo not drawn) [Compound 1b, Butanediamide, N^1-[3-[[[(1,1-dimethylethyl)amino]carbonyl](2-methylpropyl)amino]-2-hydroxy-1-(phenylmethyl)propyl]-2-[(2-quinolinylcarbonyl)amino]-, [1S-[1R*(R*),2S*]]-], the results for the IC50 against HIV protease (setting [1]) and against HIV protease (setting [2]) were 7.1 nM and 7 nM, respectively. Moreover, the TD50 in the data set on CEM cells was found to be 16 µM. In the data set with HIV-1, this compound displayed an EC50 of 10 nM.
Take `CC(C)CCN(C[C@@H](O)[C@H](Cc1ccccc1)NC(=O)[C@H](CC(N)=O)NC(=O)OCc1ccccc1)C(=O)NC(C)(C)C` [Compound 2a, Butanediamide, N^1-[3-[[[(1,1-dimethylethyl)amino]carbonyl](3-methylbutyl)amino]-2-hydroxy-1-(phenylmethyl)propyl]-2-[(N-benzyloxycarbonyl)amino], [1S-[1R*(R*),2S*]]-]: the IC50 on HIV protease (setting [3]) was found to be 13.4 nM.
`CC(C)CCN(CC(O)C(Cc1ccccc1)NC(=O)C(CC(N)=O)NC(=O)c1ccc2ccccc2n1)C(=O)NC(C)(C)C` (stereo not drawn) [Compound 2b, Butanediamide, N^1-[3-[[[(1,1-dimethylethyl)amino]carbonyl](3-methylbutyl)amino]-2-hydroxy-1-(phenylmethyl)propyl]-2-[(2-quinolinylcarbonyl)amino]-, [1S-[1R*(R*),2S*]]-] displayed an IC50 against HIV protease (setting [1]) of 3.2 nM.
With `CC(C)(C)NC(=O)N(Cc1ccc2ccccc2c1)C[C@@H](O)[C@H](Cc1ccccc1)NC(=O)[C@H](CC(N)=O)NC(=O)OCc1ccccc1` [Compound 3a, Butanediamide, N^1-[3-[[[(1,1-dimethylethyl)amino]carbonyl](2-naphthylmethyl)amino]-2-hydroxy-1-(phenylmethyl)propyl]-2-[(N-benzyloxycarbonyl)amino]-, [1S-[1R*(R*), 2S*]]-], the half-maximal inhibitory concentration (IC50) at HIV protease (setting [3]) was 31 nM.
With `CC(C)(C)NC(=O)N(Cc1ccc2ccccc2c1)CC(O)C(Cc1ccccc1)NC(=O)C(CC(N)=O)NC(=O)c1ccc2ccccc2n1` (stereo not drawn) [Compound 3b, Butanediamide, N^1-[3-[[[(1,1-dimethylethyl)amino]carbonyl](2-naphthylmethyl)amino]-2-hydroxy-1-(phenylmethyl)propyl]-2-[(2-quinolinylcarbonyl)amino]-, [1S-[1R*(R*),2S*]]-], the IC50 on HIV protease (setting [3]) was 2.9 nM.
In the case of `CC(C)(C)NC(=O)N(CCc1ccccc1)CC(O)C(Cc1ccccc1)NC(=O)C(CC(N)=O)NC(=O)OCc1ccccc1` (stereo not drawn) [Compound 4a, Butanediamide, N^1-[3-[[[(1,1-dimethylethyl)amino]carbonyl](2-phenylethyl)amino]-2-hydroxy-1-(phenylmethyl)propyl]-2-[(N-benzyloxycarbonyl)amino]-, [1S-[1R*(R*),2S*]]-], at HIV protease (setting [3]), the IC50 amounted to 70 nM.
For `CC(C)(C)NC(=O)N(CCc1ccccc1)CC(O)C(Cc1ccccc1)NC(=O)C(CC(N)=O)NC(=O)c1ccc2ccccc2n1` (stereo not drawn) [Compound 4b, Butanediamide, N^1-[3-[[[(1,1-dimethylethyl)amino]carbonyl](2-phenylethyl)amino]-2-hydroxy-1-(phenylmethyl)propyl]-2-[(2-quinolinylcarbonyl)amino]-, [1S-[1R*(R*),2S*]]-], the IC50 against HIV protease (setting [1]) and against HIV protease (setting [2]) was 10 nM in each case. The same compound came in with a TD50 in the data set with CEM cells of 13 µM. This compound also had an EC50 in the data set on HIV-1 of 28 nM.
On to `CC(C)CCN(CC(O)C(Cc1ccccc1)NC(=O)C(CC(N)=O)NC(=O)c1ccc2ccccc2n1)C(=O)NC(C)(C)C` (stereo not drawn) [Compound 5b, Butanediamide, N^1-[3-[[[(1,1-dimethylethyl)amino]carbonyl](3,3-dimethylpropyl)amino]-2-hydroxy-1-(phenylmethyl)propyl]-2-[(2-quinolinylcarbonyl)amino]-, [1S-[1R*(R*),2S*]]-], for which the IC50 on HIV protease (setting [3]) was 3.7 nM.
Same read-out and setting: next, `CC(C)CCN(CC(O)C(Cc1ccccc1)NC(=O)C(C)CS(C)(=O)=O)C(=O)NC(C)(C)C` (stereo not drawn) [Compound 6, Propanamide, N-[3-[[[(1,1-dimethylethyl)amino]carbonyl](3-methylbutyl)amino]-2-hydroxy-1-(phenylmethyl)propyl]-2-methyl-3-(methylsulfonyl)-, [1S-[1R*(R*), 2S*]]-]: 29 nM; `CC(=O)NCC(C)C(=O)NC(Cc1ccccc1)C(O)CN(CCC(C)C)C(=O)NC(C)(C)C` (stereo not drawn) [Compound 7, Propanamide, 3-(acetylamino)-N-[3-[[[(11,-dimethylethyl)amino]carbonyl](3-methylbutyl)amino]-2-hydroxy-1-(phenylmethyl)propyl]-2-methyl-, [1S-[1R*(S*),2S*]]-]: 100 nM.
Regarding `COc1ccc(COC(=O)NC[C@@H](C)C(=O)N[C@@H](Cc2ccccc2)[C@H](O)CN(CCC(C)C)C(=O)NC(C)(C)C)cc1` [Compound 8, Propanamide, 3-(4-methoxybenzyloxy-carbonyl)amino-N-[3-[[[(11,-dimethylethyl)amino]carbonyl](3-methylbutyl)amino]-2-hydroxy-1-(phenylmethyl)propyl]-2-methyl-, [1S-[1R*(S*),2S*]]-], the IC50 against HIV protease (setting [1]) was determined as 6 nM.
Turning to `NC(=O)CC(NC(=O)c1ccc2ccccc2n1)C(=O)NC(Cc1ccccc1)C(O)CN(Cc1ccc(F)cc1)C(=O)N1CCCC1` (stereo not drawn) [Compound 9, Butanediamide, N^1-[2-hydroxy-3-[(4-fluorophenylmethyl)(1-pyrrolidinylcarbonyl)amino]-1-(phenylmethyl)propyl]-2-[(2-quinolinylcarbonyl)amino]-, [1S-[1R*(R*),2S*]]-], at HIV protease (setting [3]), the IC50 came out at 7 nM.
Still for that read-out and setting: the figure for `CC(C)CCN(C[C@@H](O)[C@H](Cc1ccccc1)NC(=O)[C@H](C)C(C)(C)C(N)=O)C(=O)NC(C)(C)C` [Compound 10, Butanediamide, N^1-[3-[[[(1,1-dimethylethyl)amino]carbonyl](3-methylbutyl)amino]-2-hydroxy-1-(phenylmethyl)propyl]-2,3,3-trimethyl-, [1S-[1R*(2S*),2S*]]-] is 12 nM.
`CC(C)CCN(C[C@@H](O)[C@H](Cc1ccccc1)NC(=O)[C@H](C)C(C)(C)C(=O)O)C(=O)NC(C)(C)C` [Compound 11, Butanoic acid, 4-[[3-[[[(1,1-dimethylethyl)amino]carbonyl] (3-methylbutyl)amino]-2-hydroxy-1-(phenylmethyl)propyl]amino-2,2,3-trimethyl-4-oxo-, [1S-[1R*(3S*), 2S*]]-] displayed an IC50 against HIV protease (setting [1]) of 8 nM.
In the case of `CC(=O)N[C@H](C(=O)N[C@@H](Cc1ccccc1)[C@H](O)CN(CCC(C)C)C(=O)NC(C)(C)C)C(C)(C)C` [Compound 12, Butaneamide,2-(acetylamino)-N-[3-[[[(1,1-dimethylethyl)amino]-carbonyl](3-methylbutyl)amino]-2-hydroxy-1-(phenylmethyl)propyl]-3,3-dimethyl-, [1S-[1R*(R*),2S*]]-], on HIV protease (setting [3]), the IC50 amounted to 18 nM.
The compound `CCCCNC(=O)N(CC(C)C)C[C@@H](O)[C@H](Cc1ccccc1)NC(=O)[C@H](CC(N)=O)NC(=O)c1ccc2ccccc2n1` [butanediamide N^1[3-[[[n-butylamino]carbonyl](2-methylpropyl)amino]-2-hydroxy-1-(phenylmethyl)propyl]-2-[(2-quinolinylcarbonyl)amino]-[1S-[1R*(R*), 2S*]]-.] gave a TD50 in the data set with CEM cells of 53 µM. Besides, the EC50 with HIV-1 worked out at 26 nM.
